The results in this text go back to article PMC5841296, “Inhibition of the Hexosamine Biosynthetic Pathway by targeting PGM3 causes breast cancer growth arrest and apoptosis” (Cell Death & Disease, 2018).

Structures are written as SMILES.

The target in test [1] is T1, PGM3 (N-Acetylglucosamine-phosphate Mutase) (Homo sapiens, UniProt O95394).
T1 sequence (O95394 1-542): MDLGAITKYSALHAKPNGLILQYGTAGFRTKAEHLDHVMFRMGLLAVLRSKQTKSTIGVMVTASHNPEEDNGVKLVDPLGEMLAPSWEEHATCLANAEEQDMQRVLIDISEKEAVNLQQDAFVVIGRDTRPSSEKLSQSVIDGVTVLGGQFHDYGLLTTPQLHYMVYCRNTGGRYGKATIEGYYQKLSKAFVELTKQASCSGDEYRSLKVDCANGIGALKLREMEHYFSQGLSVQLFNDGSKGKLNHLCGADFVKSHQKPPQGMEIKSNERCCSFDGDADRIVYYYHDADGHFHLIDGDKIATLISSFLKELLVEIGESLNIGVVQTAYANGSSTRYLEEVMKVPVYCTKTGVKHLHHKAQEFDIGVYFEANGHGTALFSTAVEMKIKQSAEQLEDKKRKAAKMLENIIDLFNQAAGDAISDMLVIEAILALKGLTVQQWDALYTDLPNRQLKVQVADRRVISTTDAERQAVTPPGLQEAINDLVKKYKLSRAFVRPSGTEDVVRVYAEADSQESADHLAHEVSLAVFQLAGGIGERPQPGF
As to the kind of experiment: CETSA, Western blot (cell extract). The following applies: 30 min RT incubation of extract, heated 3 min at 49-70 °C or isothermal at 58 °C; prodrug tested, possible conversion to FR051 in lysate not excluded.

Test [2] addresses T1, PGM3 (N-Acetylglucosamine-phosphate Mutase). As to the kind of experiment: ITDRF-CETSA, Western blot (cell extract). The test is classed as biochemical. On the set-up: endogenous full-length protein in MDA-MB-231 soluble extract (freeze-thaw), detected by Western blot. Conditions: 30 min RT incubation of extract, heated 3 min at 58 °C; natural substrate.

For the molecule `CC(=O)OC[C@H]1O[C@@H]2OC(C)=N[C@@H]2[C@@H](OC(C)=O)[C@@H]1OC(C)=O` [FR054, 2-methyl-(3,4,6-tri-O-acetyl-1,2-dideoxy-α-D-glucopyrano)-[2,1-d]-2-oxazoline], the CETSA entry in test [1] is “FR054 markedly increased the accumulation of PGM3 in the soluble fraction”. Regarding `CC(=O)N[C@H]1C(O)O[C@H](COP(=O)(O)O)[C@@H](O)[C@@H]1O` (some centres unmarked) [GlcNAc-6-P], in test [2], the “ITDRF CETSA” value is given as “more potent binding than the natural substrate GlcNAc-6-P”.
